Data published in patent US20190388425A1, “SUBSTITUTED IMIDAZOPYRIDINPYRIMIDINES” (Bayer Pharma Aktiengesellschaft, priority 2017, published 2019).

Molecular target: T1, human full-length MKNK1 (Homo sapiens, UniProt Q9BUB5, T385D)
T1 construct: GST (N); purchased Carna Biosciences 02-145; host or cells: insect cells (baculovirus expression system)
Assay: MKNK1 kinase high ATP assay (TR-FRET)
Type: biochemical
Settings: TR-FRET, 2 mM ATP (high ATP), 15 min preincubation with enzyme, 30 min reaction at 22° C.; read-out: MKNK1 IC50
Summary of the method: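 Full-length human MKNK1 (T385D) preincubated 15 min at 22 °C with compound in HEPES pH 7.5/MgCl2/DTT buffer; reaction with 2 mM ATP (final) and 0.06 μM biotinylated peptide (final), 30 min at 22 °C.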

T1 sequence (Q9BUB5 1-424 isoform Q9BUB5-2 T344D): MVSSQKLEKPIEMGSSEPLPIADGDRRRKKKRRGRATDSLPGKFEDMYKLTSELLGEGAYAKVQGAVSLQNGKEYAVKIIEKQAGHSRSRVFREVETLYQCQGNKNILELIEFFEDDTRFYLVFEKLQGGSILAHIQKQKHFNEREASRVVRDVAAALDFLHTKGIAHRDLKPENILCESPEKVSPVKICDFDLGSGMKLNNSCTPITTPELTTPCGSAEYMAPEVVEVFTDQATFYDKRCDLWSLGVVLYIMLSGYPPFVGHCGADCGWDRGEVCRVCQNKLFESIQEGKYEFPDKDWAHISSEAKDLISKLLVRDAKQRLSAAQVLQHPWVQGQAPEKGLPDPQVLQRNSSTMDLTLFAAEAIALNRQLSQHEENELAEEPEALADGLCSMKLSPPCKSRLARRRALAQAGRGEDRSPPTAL

Compound	IC50 [nM]
CN(C)C(=O)[C@H]1CCc2c(sc3ncnc(Nc4cc(Cl)c5n(c4=O)C4(CCC4)NC5=O)c23)C1 [Example 95, (7S)-4-[(8′-Chloro-1′,5′-dioxo-1′,5′-dihydro-2′H-spiro[cyclobutane-1,3′-imidazo[1,5-a]pyridin]-6′-yl)amino]-N,N-dimethyl-5,6,7,8-tetrahydro[1]benzothieno[2,3-d]pyrimidine-7-carboxamide]	1.9
O=C1NC2(CCC2)n2c1c(Cl)cc(Nc1ncnc3sc4c(c13)CC[C@H](C(=O)N1CCC1)C4)c2=O [Example 96, 6′-{[(7S)-7-(Azetidine-1-carbonyl)-5,6,7,8-tetrahydro[1]benzothieno[2,3-d]pyrimidin-4-yl]amino}-8′-chloro-2′H-spiro[cyclobutane-1,3′-imidazo[1,5-a]pyridine]-1′,5′-dione]	0.1
N#CC1CN(C(=O)[C@H]2CCc3c(sc4ncnc(Nc5cc(Cl)c6n(c5=O)C5(CCC5)NC6=O)c34)C2)C1 [Example 97, 1-{(7S)-4-[(8′-Chloro-1′,5′-dioxo-1′,5′-dihydro-2′H-spiro[cyclobutane-1,3′-imidazo[1,5-a]pyridin]-6′-yl)amino]-5,6,7,8-tetrahydro[1]benzothieno[2,3-d]pyrimidine-7-carbonyl}azetidine-3-carbonitrile]	0.1
CN(C)[C@H]1CCN(C(=O)[C@H]2CCc3c(sc4ncnc(Nc5cc(Cl)c6n(c5=O)C5(CCC5)NC6=O)c34)C2)C1 [Example 98, 8′-Chloro-6′-({(7S)-7-[(3S)-3-(dimethylamino)pyrrolidine-1-carbonyl]-5,6,7,8-tetrahydro[1]benzothieno[2,3-d]pyrimidin-4-yl}amino)-2′H-spiro[cyclobutane-1,3′-imidazo[1,5-a]pyridine]-1′,5′-dione]	< 0.1
C[C@@H]1COCCN1C(=O)[C@H]1CCc2c(sc3ncnc(Nc4cc(Cl)c5n(c4=O)C4(CCC4)NC5=O)c23)C1 [Example 99, 8′-Chloro-6′-({(7S)-7-[(3R)-3-methylmorpholine-4-carbonyl]-5,6,7,8-tetrahydro[1]benzothieno[2,3-d]pyrimidin-4-yl}amino)-2′H-spiro[cyclobutane-1,3′-imidazo[1,5-a]pyridine]-1′,5′-dione]	0.1
C[C@@H]1CN(C(=O)[C@H]2CCc3c(sc4ncnc(Nc5cc(Cl)c6n(c5=O)C5(CCC5)NC6=O)c34)C2)CCN1C [Example 100, 8′-Chloro-6′-({(7S)-7-[(3R)-3,4-dimethylpiperazine-1-carbonyl]-5,6,7,8-tetrahydro[1]benzothieno[2,3-d]pyrimidin-4-yl}amino)-2′H-spiro[cyclobutane-1,3′-imidazo[1,5-a]pyridine]-1′,5′-dione]	0.1
O=C1NC2(CSC2)n2c1c(Cl)cc(Nc1ncnc3sc4c(c13)CC[C@H](C(=O)O)C4)c2=O [Example 101, (7S)-4-[(8-Chloro-1,5-dioxo-1,5-dihydro-2H-spiro[imidazo[1,5-a]pyridine-3,3′-thietan]-6-yl)amino]-5,6,7,8-tetrahydro[1]benzothieno[2,3-d]pyrimidine-7-carboxylic acid]	1.8
CN(C)C(=O)[C@H]1CCc2c(sc3ncnc(Nc4cc(Cl)c5n(c4=O)C4(CSC4)NC5=O)c23)C1 [Example 102, (7S)-4-[(8-Chloro-1,5-dioxo-1,5-dihydro-2H-spiro[imidazo[1,5-a]pyridine-3,3′-thietan]-6-yl)amino]-N,N-dimethyl-5,6,7,8-tetrahydro[1]benzothieno[2,3-d]pyrimidine-7-carboxamide]	0.2
O=C1NC2(CSC2)n2c1c(Cl)cc(Nc1ncnc3sc4c(c13)CC[C@H](C(=O)N1CCC1)C4)c2=O [Example 103, 6-{[(7S)-7-(Azetidine-1-carbonyl)-5,6,7,8-tetrahydro[1]benzothieno[2,3-d]pyrimidin-4-yl]amino}-8-chloro-2H-spiro[imidazo[1,5-a]pyridine-3,3′-thietane]-1,5-dione]	0.2
N#CC1CN(C(=O)[C@H]2CCc3c(sc4ncnc(Nc5cc(Cl)c6n(c5=O)C5(CSC5)NC6=O)c34)C2)C1 [Example 104, 1-{(7S)-4-[(8-Chloro-1,5-dioxo-1,5-dihydro-2H-spiro[imidazo[1,5-a]pyridine-3,3′-thietan]-6-yl)amino]-5,6,7,8-tetrahydro[1]benzothieno[2,3-d]pyrimidine-7-carbonyl}azetidine-3-carbonitrile]	0.2
CN(C)[C@H]1CCN(C(=O)[C@H]2CCc3c(sc4ncnc(Nc5cc(Cl)c6n(c5=O)C5(CSC5)NC6=O)c34)C2)C1 [Example 105, 8-Chloro-6-({(7S)-7-[(3S)-3-(dimethylamino)pyrrolidine-1-carbonyl]-5,6,7,8-tetrahydro[1]benzothieno[2,3-d]pyrimidin-4-yl}amino)-2H-spiro[imidazo[1,5-a]pyridine-3,3′-thietane]-1,5-dione]	0.1
C[C@@H]1COCCN1C(=O)[C@H]1CCc2c(sc3ncnc(Nc4cc(Cl)c5n(c4=O)C4(CSC4)NC5=O)c23)C1 [Example 106, 8-Chloro-6-({(7S)-7-[(3R)-3-methylmorpholine-4-carbonyl]-5,6,7,8-tetrahydro[1]benzothieno[2,3-d]pyrimidin-4-yl}amino)-2H-spiro[imidazo[1,5-a]pyridine-3,3′-thietane]-1,5-dione]	0.3
C[C@@H]1CN(C(=O)[C@H]2CCc3c(sc4ncnc(Nc5cc(Cl)c6n(c5=O)C5(CSC5)NC6=O)c34)C2)CCN1C [Example 107, 8-Chloro-6-({(7S)-7-[(3R)-3,4-dimethylpiperazine-1-carbonyl]-5,6,7,8-tetrahydro[1]benzothieno[2,3-d]pyrimidin-4-yl}amino)-2H-spiro[imidazo[1,5-a]pyridine-3,3′-thietane]-1,5-dione]	0.2
O=C1NC2(CSC2)n2c1c(Cl)cc(Nc1ncnc3sc4c(c13)CC[C@H](C(=O)N1C[C@H]3C[C@@H]1CO3)C4)c2=O [Example 108, 8-Chloro-6-({(7S)-7-[(1R,4R)-2-oxa-5-azabicyclo[2.2.1]heptane-5-carbonyl]-5,6,7,8-tetrahydro[1]benzothieno[2,3-d]pyrimidin-4-yl}amino)-2H-spiro[imidazo[1,5-a]pyridine-3,3′-thietane]-1,5-dione]	0.8
CC1(C)NC(=O)c2c(Cl)cc(Nc3ncnc4sc5c(c34)CC[C@H](C(=O)O)C5)c(=O)n21 [Example 109, (7S)-4-[(8-Chloro-3,3-dimethyl-1,5-dioxo-1,2,3,5-tetrahydroimidazo[1,5-a]pyridin-6-yl)amino]-5,6,7,8-tetrahydro[1]benzothieno[2,3-d]pyrimidine-7-carboxylic acid]	26.7
CC1(C)NC(=O)c2c(Cl)cc(Nc3ncnc4sc5c(c34)CC[C@H](C(N)=O)C5)c(=O)n21 [Example 110, (7S)-4-[(8-Chloro-3,3-dimethyl-1,5-dioxo-1,2,3,5-tetrahydroimidazo[1,5-a]pyridin-6-yl)amino]-5,6,7,8-tetrahydro[1]benzothieno[2,3-d]pyrimidine-7-carboxamide]	1.2
CN(C)C(=O)[C@H]1CCc2c(sc3ncnc(Nc4cc(Cl)c5n(c4=O)C(C)(C)NC5=O)c23)C1 [Example 111, (7S)-4-[(8-Chloro-3,3-dimethyl-1,5-dioxo-1,2,3,5-tetrahydroimidazo[1,5-a]pyridin-6-yl)amino]-N,N-dimethyl-5,6,7,8-tetrahydro[1]benzothieno[2,3-d]pyrimidine-7-carboxamide]	0.3
CC1(C)NC(=O)c2c(Cl)cc(Nc3ncnc4sc5c(c34)CC[C@H](C(=O)N3CCC3)C5)c(=O)n21 [Example 112, 6-{[(7S)-7-(Azetidine-1-carbonyl)-5,6,7,8-tetrahydro[1]benzothieno[2,3-d]pyrimidin-4-yl]amino}-8-chloro-3,3-dimethyl-2,3-dihydroimidazo[1,5-a]pyridine-1,5-dione]	0.2
CC1(C)NC(=O)c2c(Cl)cc(Nc3ncnc4sc5c(c34)CC[C@H](C(=O)N3CC(C#N)C3)C5)c(=O)n21 [Example 113, 1-{(7S)-4-[(8-Chloro-3,3-dimethyl-1,5-dioxo-1,2,3,5-tetrahydroimidazo[1,5-a]pyridin-6-yl)amino]-5,6,7,8-tetrahydro[1]benzothieno[2,3-d]pyrimidine-7-carbonyl}azetidine-3-carbonitrile]	0.2
CN(C)[C@H]1CCN(C(=O)[C@H]2CCc3c(sc4ncnc(Nc5cc(Cl)c6n(c5=O)C(C)(C)NC6=O)c34)C2)C1 [Example 114, 8-Chloro-6-({(7S)-7-[(3S)-3-(dimethylamino)pyrrolidine-1-carbonyl]-5,6,7,8-tetrahydro[1]benzothieno[2,3-d]pyrimidin-4-yl}amino)-3,3-dimethyl-2,3-dihydroimidazo[1,5-a]pyridine-1,5-dione]	< 0.1
C[C@@H]1CN(C(=O)[C@H]2CCc3c(sc4ncnc(Nc5cc(Cl)c6n(c5=O)C(C)(C)NC6=O)c34)C2)CCN1C [Example 115, 8-Chloro-6-({(7S)-7-[(3R)-3,4-dimethylpiperazine-1-carbonyl]-5,6,7,8-tetrahydro[1]benzothieno[2,3-d]pyrimidin-4-yl}amino)-3,3-dimethyl-2,3-dihydroimidazo[1,5-a]pyridine-1,5-dione]	0.2
CC1(C)NC(=O)c2c(Cl)cc(Nc3ncnc4sc5c(c34)CC[C@H](C(=O)N3C[C@H]4C[C@@H]3CO4)C5)c(=O)n21 [Example 116, 8-Chloro-3,3-dimethyl-6-({(7S)-7-[(1R,4R)-2-oxa-5-azabicyclo[2.2.1]heptane-5-carbonyl]-5,6,7,8-tetrahydro[1]benzothieno[2,3-d]pyrimidin-4-yl}amino)-2,3-dihydroimidazo[1,5-a]pyridine-1,5-dione]	0.3
C[C@@H]1COCCN1C(=O)[C@H]1CCc2c(sc3ncnc(Nc4cc(Cl)c5n(c4=O)C(C)(C)NC5=O)c23)C1 [Example 117, 8-chloro-3,3-dimethyl-6-({(7S)-7-[(3R)-3-methylmorpholine-4-carbonyl]-5,6,7,8-tetrahydro[1]benzothieno[2,3-d]pyrimidin-4-yl}amino)-2,3-dihydroimidazo[1,5-a]pyridine-1,5-dione]	0.4
